Measurements reported in US20220119446A1, “BIOMARKERS AND TREATMENT OF NEURONAL INJURY AND NEURODEGENERATION” (Board of Supervisons of Louisiana State University and …, priority 2018, published 2022).
“Also recorded” adds a separate entry of the source.

Key:
Type in all cases: cell-based, human
Wnt5a/FZD5 = test: Immunocytochemistry of Wnt5a/FZD5 colocalization and vesicles in hpRPE cells; details: for number of Wnt5a/FZD5 colocalized vesicles per field: hpRPE, UOS 1600 μM H2O2, 2 hours, +/− 50 ng/ml Wnt5a, no Pitstop2
Procedure: To ascertain localization and interaction between FZD5 and Wnt5a we incubated hpRPE undergoing UOS with Wnt5a+/−NPD1 or other lipid mediators.
(§1) Immunostaining can be performed in 8-well slide chambers and the Hoechst staining in 24-well plates. […] Briefly, cells can be fixed using 4% paraformaldehyde in PBS 1× for 20 min at room temperature or overnight at 4° C. After three washes with PBS, cells can be permeabilized using 0.1% Triton™ X-100 for five minutes and blocked using 10% normal serum and 1% BSA for one hour. […] Hoechst staining can be performed using same protocol of fixation. In one embodiment, permeabilization is done using methanol for 20 min at room temperature. […] Dying cells can be identified by size (0 to 50 pixels), intensity threshold, and circularity. The ratio of hyperpyknotic cells over the total can be calculated for nine randomly chosen fields per sample obtained from three independent wells per experiment. Each experiment can be repeated at least three times to confirm the findings.
In an embodiment involving early stages of apoptosis, the total number of cells per field is assessed and counted to ensure unbiased observations. […] Settings can be adjusted in the conditions that show higher intensity and can be used throughout the remaining samples. In an embodiment, Pearson's colocalization coefficient (PCC) is obtained using FV1200 analysis software for every field in each experiment, and the mean and SEM are depicted in FIGS. 7-11.
Immunostaining was performed in 8-well slide chambers and the Hoechst staining in 24 well plates. […] Briefly, cells were fixed using 4% paraformaldehyde in PBS 1× for 20 min at room temperature or overnight at 4° C. After three washes with PBS, cells were permeabilized using 0.1% Triton™ X-100 for five minutes and blocked using 10% normal serum and 1% BSA for one hour. […] Hoechst staining was performed using same protocol of fixation, but permeabilization was done using methanol for 20 min at room temperature. […] Dying cells were identified by size (0 to 50 pixels), intensity threshold and circularity. The ratio of hyperpyknotic cells over the total was calculated for nine randomly chosen fields per sample obtained from three independent wells per experiment. Each experiment was repeated at least three times to confirm the findings. In the experiments involving early stages of apoptosis, we assessed the total number of cells per field and counted them to ensure unbiased observations. […] Pearson's colocalization coefficient (PCC) was obtained using FV1200 analysis software for every field in each experiment, and the mean and SEM are depicted in Figures S1-S5. […] IMARIS software analysis was performed building a colocalization channel using the Costes thresholding, and the colocalized elements were analyzed using the spots function using the settings different spots sites, background subtraction and local contrast. The output obtained consisted on a collection of sizes (one per element in each picture) or the mean of the intensity in each spot.

ARPE-19 cells and hpRPE = test: Apoptosis by Hoechst staining in RPE cells under UOS
Procedure: ARPE-19 cells, can be plated and grown in DMEM/F-12 containing 10% FBS and 1× penicillin/streptomycin at 37° C., 5% CO2, 99% relative humidity for 24 h. […] 15-LOX-1 deficient cells can be maintained in the same medium as ARPE-19 with the addition of 500 μg/mL Geneticin (Life Technologies Corporation, Carlsbad, Calif.). Transfection can be performed in all cases using Lipofectamine 2000 (Life Technologies Corporation, Carlsbad, Calif.) following the manufacturer's recommendations. […] Experiments with transfection efficiency that yielded less than 80% can be discarded. For siRNA, we used 6 μl of Lipofectamine 2000 per 50 pmol of siRNA per mL of incubation medium, and, for plasmids, we used 6 μl of Lipofectamine 2000 per 2 μg of plasmid per mL of incubation medium. Cells can be incubated for 5 hours at 37° C., 5% CO2 and 99% relative humidity. […] When siRNA/plasmid co-transfection is required, siRNA and plasmid-carrying transfection mixes can be prepared separately and added one after the other in the same well. Oxidative stress treatments can be performed using 600 (ARPE-19) or 1600 (hRPE) μM H2O2, along with 10 ng/mL TNFα, for the required time indicated in each experiment. The treatment we used employed the low serum (0.5% serum) without hFGF. Treatment to induce uncompensated oxidative stress (UOS) can be performed after 8 hours of low-serum medium incubation unless specifically noted. Wnt5a, Wnt3a or NPD1 can be added immediately before induction of UOS. In the secretion experiments, Pitstop 2 can be added to the medium 2 hours before harvesting.
as §1
ARPE-19 cells, were plated and grown in DMEM/F-12 containing 10% FBS and 1× penicillin/streptomycin at 37° C., 5% CO2, 99% relative humidity for 24 h. […] 15-LOX-1 deficient cells were maintained in the same medium as ARPE-19 with the addition of 500 μg/mL Geneticin (Life Technologies Corporation). Transfection was performed in all cases using Lipofectamine 2000 (Life Technologies Corporation) following the manufacturer's recommendations. […] Experiments with transfection efficiency that yielded less than 80% were discarded. For siRNA, we used 6 μl of Lipofectamine 2000 per 50 pmol of siRNA per mL of incubation medium, and, for plasmids, we used 6 μl of Lipofectamine 2000 per 2 μg of plasmid per mL of incubation medium. Cells were incubated for 5 hours at 37° C., 5% CO2 and 99% relative humidity. […] When siRNA/plasmid co-transfection was required, siRNA and plasmid-carrying transfection mixes were prepared separately and added one after the other in the same well. […] The treatment we used employed the low serum (0.5% serum) without hFGF. Treatment to induce uncompensated oxidative stress (UOS) was performed after 8 hours of low-serum medium incubation unless specifically noted. Wnt5a, Wnt3a or NPD1 was added immediately before induction of UOS.

Wnt5a = test: Western blot of secreted (sWnt5a) and cellular (cWnt5a) Wnt5a in RPE cells under UOS
Procedure: To monitor transcription, translation, and secretion of Wnt5a, we performed western blot assays using cellular lysates and medium from hpRPE undergoing UOS+/−NPD1 at different time points. Medium was precipitated using Methanol/Chloroform to bring down all secreted Wnt5a.
The pellet can be re-suspended and denatured in 100 μl of 2× Laemmli sample buffer (Bio-Rad Laboratories, Hercules, Calif.) at 95° C. for 5 min. MCAo brain tissue and cell samples can be homogenized using RIPA (Thermo Fisher Scientific, Waltham, Mass.) buffer supplemented with protease and phosphatase inhibitor cocktails (Millipore Sigma, Burlington, Mass.). In embodiments, the amount of 30 μg of total protein is loaded in NuPAGE® Novex® 4-12% Bis-Tris precast gels (Life Technologies Corporation, Carlsbad, Calif.) and run at constant 120V for about 1 hour and 20 min. Proteins can be transferred to μm Nitrocellulose membrane using Bio-Rad Trans-Blot® Turbo™ System (Bio-Rad Laboratories, Hercules, Calif.). ECL™ Plex Fluorescent Rainbow Markers (GE Healthcare, Chicago, Ill.) can be used as the ladder for protein's molecular weight. Membranes can be blocked using 5% non-fat dry milk (Bio-Rad Laboratories, Hercules, Calif.) in TBS with 1% Tween® 20 (TBST-10×) (Croda International, Snaith, United Kingdom) for 1 hour and incubated overnight with primary antibodies. Anti-mouse or anti-rabbit secondary antibodies conjugated with Cy3 or Cy5 can be used to visualize the protein of interest. Immunoblots can be documented using LAS 4000 imaging system (GE Healthcare Life Sciences, Marlborough, Mass.). A time course exposition can be produced in each case to prevent quantification of saturated images. In embodiments, densitometry data are obtained using ImageQuant™ TL software (GE Healthcare Life Sciences, Marlborough, Mass.).
The pellet was re-suspended and denatured in 100 μl of 2× Laemmli sample buffer (Bio-Rad Laboratories) at 95° C. for 5 min. MCAo brain tissue and cell samples were homogenized using RIPA (Thermo Fisher Scientific) buffer supplemented with protease and phosphatase inhibitor cocktails (Sigma). The amount of 30 μg of total protein was loaded in NuPAGE® Novex® 4-12% Bis-Tris precast gels (Life Technologies Corporation) or Mini-PROTEAN TGX Stain free gels 4-15% and ran at constant 120V for 1 hour and 20 min or 250 V for 40 min respectively. Proteins were transferred to μm Nitrocellulose or LF-PVDF membrane using Bio-Rad Trans-Blot® Turbo™ System (Bio-Rad Laboratories). ECL™ Plex Fluorescent Rainbow Markers (GE Healthcare) were used as the ladder for protein's molecular weight. […] A time course exposition was produced in each case to prevent quantification of saturated images. […]

NF-κB/p65 = NF-κB/p65 luciferase reporter assay in hpRPE cells; details: hpRPE under UOS in the presence of Wnt5a 50 ng/ml; NPD1 100 or 200 nM; Pitstop2 25 μM
Procedure: We asked if Wnt5a activates inflammatory signaling to enhance apoptosis mediated by UOS by assessing COX-2 promoter activation (FIG. 10). […] To compare Wnt5a effects with other cytokines that enhance COX-2 expression, Interleukin-1β (IL-1β) activity was measured. […] To determine if Wnt5a activates NF-κB, hpRPE were transfected with a construct that encompassed three p65 high-affinity binding sites in tandem, driving the expression of the luciferase reporter gene (FIG. 1G). […] To assess whether or not FDZ5 and ROR2 were involved in NF-κB activation by Wnt5a, cells were co-transfected with siRNAs targeting the two receptors (FIG. 11).
(§2) Except TOP/FOP flash, the Luciferase activity can be standardized using a construct expressing GFP constitutively under CMV virus promoter. To assess luciferase activity, cell lysates can be obtained using Passive Lysis Buffer (Promega, Madison, Wis.) and mixed with a luciferase assay reagent (Promegam Madison, Wis.). Chemiluminescence produced by luciferase and fluorescence from GFP can be detected using Appliscan 2.3. Data can be analyzed using SkanIt 2.3 (Thermo Fisher Scientific, Waltham, Mass.).
Except TOP/FOP flash, the Luciferase activity was standardized using a construct expressing GFP constitutively under CMV virus promoter. To assess luciferase activity, cell lysates were obtained using Passive Lysis Buffer (Promega) and mixed with a luciferase assay reagent (Promega). Chemiluminescence produced by luciferase and fluorescence from GFP was detected using Appliscan 2.3. Data were analyzed using SkanIt 2.3 (Thermo Fisher Scientific).

COX-2 promoter = COX-2 promoter luciferase reporter assay; details: ARPE-19 cells; 50 ng/ml Wnt5a or 20 ng/ml IL1-β
Excerpt: as §2
A, Design of luciferase reporter assay performed with COX-2 promoter construct. UOS was induced by the addition of 10 ng/ml TNFα and 600 μM H2O2 in ARPE-19 cells. The concentrations of Wnt5a used was 50 ng/ml. Cells were co-transfected with the constructs driving the expression of luciferase and a plasmid that constitutively expressed green fluorescent protein for standardization. Luciferase activity is denoted in luciferase activity units (LUC) and standardized using GFP fluorescent (GFP). B, Wnt5a and IL-1β effect time course on COX-2 promoter activity. […] Luciferase activity (LUC) was measured in ARPE-19 cells in the presence of 50 ng/ml Wnt5a or 20 ng/ml IL1-β. […] Luciferase activity measured in cells incubated with 50 ng/ml Wnt5a in the presence or absence of 100 nM (+) and 200 nM (++) NPD1.

CCC=CCC(O)C=CC=CC=CC(O)CC=CCC=CCCC(=O)O (centres unmarked) [10R, 17R diHDHA]
number of Wnt5a/FZD5 colocalized vesicles per field (Wnt5a/FZD5): decreased the amount of vesicles per field
number of Wnt5a/FZD5 colocalized vesicles per field (Wnt5a/FZD5; listed as NPD1 stereoisomer, of 10-R, 17R configuration): showed the same effect as NPD1
UOS-dependent NFkB activation and apoptosis (FIG. 18B legend) (ARPE-19 cells and hpRPE): counteracted these effects

CC/C=C\C/C=C\C[C@H](O)\C=C/C=C/C=C/[C@H](O)C/C=C\CCC(=O)O [Maresin-1]
UOS-dependent NFkB activation and apoptosis (FIG. 18B legend) (ARPE-19 cells and hpRPE): counteracted these effects

O=C1NC(=NS(=O)(=O)c2cccc3ccccc23)S/C1=C\c1ccc(Br)cc1 [Pitstop2]
number of Wnt5a/FZD5 co-localized vesicles in the presence of Pitstop2 (Wnt5a/FZD5; 25 μM Pitstop2, control and UOS treated cells, rWnt5a added): prevented the increased in Wnt5a/FZD5 co-localized vesicles; also recorded: inhibition produced by Box5 was reverted
cellular Wnt5a (cWnt5a) abundance (Wnt5a; cells undergoing UOS+/−NPD1 and Pitstop2): did not modify cWnt5a abundance
secreted Wnt5a (sWnt5a) in medium (Wnt5a; hpRPE cells under UOS, Pitstop2 added 2 hours before harvesting): reverted the effect of NPD1 on sWnt5a; also recorded: increase in secreted Wnt5a; also recorded: increase in sWnt5a
NF-κB/p65 activation (luciferase) (NF-κB/p65): decreases the activation of p65/NF-κB; also recorded: interferes with the activation of NF-κB/p65; also recorded: decreases the activation of p65/NFkB; also recorded: interferes with the activation of NFkB/p65

CC/C=C\C[C@H](O)/C=C/C=C\C=C\C=C\[C@@H](O)[C@@H](O)C/C=C\CCC(=O)O [RvD1, 7S,8R,17S-trihydroxy-DHA]
UOS-dependent NFkB activation and apoptosis (FIG. 18B legend) (ARPE-19 cells and hpRPE): counteracted these effects

CC/C=C\C[C@H](O)[C@H](O)/C=C/C=C/C=C\C=C\[C@@H](O)C/C=C\CCC(=O)O [RvD2, 7S,16R,17S-trihydroxy-DHA]
UOS-dependent NFkB activation and apoptosis (FIG. 18B legend) (ARPE-19 cells and hpRPE): counteracted these effects

IL-1 β: cytokine that enhances COX-2 expression, used for comparison with Wnt5a
COX-2 promoter activation (luciferase) (COX-2 promoter): growing staggered pattern of COX-2 promoter activation through at least 16 hours
